Activity calls are given as the source filed them. No cut-off for these calls is given here.
Tests used:
[1] = target: Mast/stem cell growth factor receptor Kit (Homo sapiens, UniProt P10721); assay: Inhibition of c-KIT (unknown origin) using peptide substrate TK-S and ATP as substrate incubated for 1 hr by HTRF assay; format: toxicity
[2] = Selectivity ratio of IC50 for inhibition of c-KIT (unknown origin) to IC50 for inhibition of FLT3 D835Y mutant (unknown origin)
[3] = target: Receptor-type tyrosine-protein kinase FLT3 (Homo sapiens, UniProt P36888, D835Y)
Description: Inhibition of FLT3 D835Y mutant (unknown origin) using peptide substrate TK-S and ATP as substrate incubated for 1 hr by HTRF assay

BaF3 [4] = assay: Antiproliferative activity against mouse BaF3 cells harboring FLT3 F691L mutant assessed as reduction in cell viability incubated for 72 hrs by CellTiter 96 Aqueous One Solution Cell Proliferation Assay; format: functional, cell-based
BaF3 [5] = assay: Antiproliferative activity against mouse BaF3 cells harboring FLT3 D835V mutant assessed as reduction in cell viability incubated for 72 hrs by CellTiter 96 Aqueous One Solution Cell Proliferation Assay; format: functional, cell-based
BaF3 [6] = assay: Antiproliferative activity against mouse BaF3 cells harboring FLT3 D835F mutant assessed as reduction in cell viability incubated for 72 hrs by CellTiter 96 Aqueous One Solution Cell Proliferation Assay; format: functional, cell-based
[7] = target: T1, Serine/threonine-protein kinase Chk1 (Homo sapiens, UniProt O14757)
T1 sequence (O14757 whole entry): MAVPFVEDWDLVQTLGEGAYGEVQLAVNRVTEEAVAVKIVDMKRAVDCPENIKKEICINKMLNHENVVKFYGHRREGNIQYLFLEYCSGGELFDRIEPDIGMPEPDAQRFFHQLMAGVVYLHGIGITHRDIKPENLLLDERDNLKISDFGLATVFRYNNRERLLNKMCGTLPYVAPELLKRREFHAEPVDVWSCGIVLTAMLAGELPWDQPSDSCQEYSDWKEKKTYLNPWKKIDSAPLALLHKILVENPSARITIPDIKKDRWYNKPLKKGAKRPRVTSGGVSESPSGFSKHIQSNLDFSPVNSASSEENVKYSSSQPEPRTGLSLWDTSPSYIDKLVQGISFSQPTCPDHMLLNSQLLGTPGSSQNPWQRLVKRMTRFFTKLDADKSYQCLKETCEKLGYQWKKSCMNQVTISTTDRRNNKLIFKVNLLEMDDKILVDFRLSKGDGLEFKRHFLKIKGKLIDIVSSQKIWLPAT
Description: Inhibition of CHK1 (unknown origin) using peptide substrate S1 and ATP as substrate incubated for 1 hr by HTRF assay

hERG (KCNH2) = hERG (KCNH2) (Homo sapiens, UniProt Q12809); assay: Inhibition of hERG expressed in HEK293 cells at 20 uM by whole cell patch clamp analysis; format: toxicity, cell-based; settings: HEK293 cells expressing hERG
Sequence of hERG (KCNH2) (Q12809 whole entry): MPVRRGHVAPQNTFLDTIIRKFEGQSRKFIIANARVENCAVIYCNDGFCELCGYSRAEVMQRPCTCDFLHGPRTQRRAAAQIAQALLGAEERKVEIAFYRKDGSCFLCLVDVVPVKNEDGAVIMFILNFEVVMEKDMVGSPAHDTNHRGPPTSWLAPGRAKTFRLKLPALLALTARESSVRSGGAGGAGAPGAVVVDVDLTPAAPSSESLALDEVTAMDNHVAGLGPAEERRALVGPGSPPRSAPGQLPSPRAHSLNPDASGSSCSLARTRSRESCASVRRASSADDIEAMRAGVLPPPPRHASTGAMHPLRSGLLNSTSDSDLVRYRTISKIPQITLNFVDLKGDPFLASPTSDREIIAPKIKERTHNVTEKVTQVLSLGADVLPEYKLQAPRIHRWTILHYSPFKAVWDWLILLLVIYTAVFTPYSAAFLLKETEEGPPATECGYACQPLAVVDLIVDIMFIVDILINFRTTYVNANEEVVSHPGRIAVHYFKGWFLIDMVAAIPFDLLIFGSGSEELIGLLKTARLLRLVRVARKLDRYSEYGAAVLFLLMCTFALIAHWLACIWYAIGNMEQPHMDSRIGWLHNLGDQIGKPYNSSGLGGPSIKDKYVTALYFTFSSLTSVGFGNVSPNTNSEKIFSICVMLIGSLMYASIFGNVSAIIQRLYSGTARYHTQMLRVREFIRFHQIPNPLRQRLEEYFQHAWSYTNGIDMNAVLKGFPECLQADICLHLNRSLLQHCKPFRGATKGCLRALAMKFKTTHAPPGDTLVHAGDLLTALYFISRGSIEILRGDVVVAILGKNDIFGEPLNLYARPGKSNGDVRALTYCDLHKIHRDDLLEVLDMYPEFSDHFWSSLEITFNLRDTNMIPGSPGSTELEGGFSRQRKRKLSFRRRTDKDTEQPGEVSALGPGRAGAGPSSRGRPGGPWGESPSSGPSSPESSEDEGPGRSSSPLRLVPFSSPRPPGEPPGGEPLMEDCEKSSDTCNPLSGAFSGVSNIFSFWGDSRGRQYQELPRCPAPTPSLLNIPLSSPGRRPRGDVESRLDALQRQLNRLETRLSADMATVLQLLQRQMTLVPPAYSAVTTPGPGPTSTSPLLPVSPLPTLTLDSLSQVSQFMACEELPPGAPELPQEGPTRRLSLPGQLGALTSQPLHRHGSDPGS

MV4-11 = assay: cells; settings: Homo sapiens, MV4-11, 72 h
Description: Antiproliferative activity against human MV4-11 cells assessed as reduction in cell viability incubated for 72 hrs by CellTiter 96 Aqueous One Solution Cell Proliferation Assay

[8] = AUC (last) in ICR mouse at 10 mg/kg, po; format: ADME, organism-based; set-up: dose 10 mg/kg, route po; settings: in vivo
[9] = Tmax in ICR mouse at 10 mg/kg, po; format: ADME, organism-based; settings: in vivo
[10] = MRT (infinity) in ICR mouse at 10 mg/kg, po; format: ADME, organism-based; settings: in vivo
[11] = Cmax in ICR mouse at 10 mg/kg, po; format: ADME, organism-based; set-up: dose 10 mg/kg, route po; settings: in vivo
[12] = AUC (infinity) in ICR mouse at 10 mg/kg, po; format: ADME, organism-based; set-up: dose 10 mg/kg, route po; settings: in vivo
[13] = Half life in ICR mouse at 10 mg/kg, po; format: ADME, organism-based; settings: in vivo

Sequence of Mast/stem cell growth factor receptor Kit (P10721 whole entry): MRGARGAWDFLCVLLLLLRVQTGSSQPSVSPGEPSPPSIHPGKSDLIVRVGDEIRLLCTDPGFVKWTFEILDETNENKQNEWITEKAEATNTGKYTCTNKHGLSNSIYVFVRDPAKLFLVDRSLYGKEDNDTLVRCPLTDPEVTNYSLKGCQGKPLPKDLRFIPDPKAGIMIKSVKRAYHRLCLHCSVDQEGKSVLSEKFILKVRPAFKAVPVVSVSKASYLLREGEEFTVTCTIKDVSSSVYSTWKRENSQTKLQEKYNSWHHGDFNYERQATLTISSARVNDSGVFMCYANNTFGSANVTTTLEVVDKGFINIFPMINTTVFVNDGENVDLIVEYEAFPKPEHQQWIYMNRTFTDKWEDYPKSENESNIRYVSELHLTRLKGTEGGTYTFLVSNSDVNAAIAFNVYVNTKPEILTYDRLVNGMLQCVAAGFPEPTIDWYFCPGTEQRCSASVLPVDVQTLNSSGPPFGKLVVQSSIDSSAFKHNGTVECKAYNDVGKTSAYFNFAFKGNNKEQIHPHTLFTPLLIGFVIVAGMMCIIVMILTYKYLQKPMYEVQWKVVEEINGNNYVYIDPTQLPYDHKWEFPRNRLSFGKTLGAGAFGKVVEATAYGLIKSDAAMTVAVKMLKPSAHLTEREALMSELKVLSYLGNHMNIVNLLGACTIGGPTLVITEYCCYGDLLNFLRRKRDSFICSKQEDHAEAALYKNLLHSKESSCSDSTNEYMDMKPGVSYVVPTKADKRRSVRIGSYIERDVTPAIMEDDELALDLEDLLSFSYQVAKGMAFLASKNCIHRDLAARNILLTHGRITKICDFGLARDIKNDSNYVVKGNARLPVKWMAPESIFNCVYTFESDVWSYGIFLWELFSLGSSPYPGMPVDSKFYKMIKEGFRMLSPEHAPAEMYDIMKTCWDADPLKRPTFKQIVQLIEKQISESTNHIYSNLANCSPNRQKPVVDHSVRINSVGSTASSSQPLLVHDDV

| Structure (SMILES) | IC50 [1] | Ratio IC50 [2] | IC50 [3] | Activity (BaF3 [4]) | Activity (BaF3 [5]) | Activity (BaF3 [6]) | IC50 [7] | inhibition at 20 µM (hERG (KCNH2)) | IC50 (MV4-11) | AUC(0-t) [8] | Tmax [9] | MRT inf [10] | Cmax [11] | AUC(0-inf) [12] | half-life [13] |
| --- | --- | --- | --- | --- | --- | --- | --- | --- | --- | --- | --- | --- | --- | --- | --- |
| CC(C)(O)CC(=O)N1CCc2ccc(Nc3ncc(C(F)(F)F)c(N[C@H]4CC[C@@H](N)CC4)n3)cc2C1 | 3840 nM | 1820 | 2.11 nM | Active | Active | Active | 9.9 nM | 43.9% | 0.44 nM | – | – | – | – | – | – |
| CC(C)(O)C(=O)N1CCc2cc(Nc3ncc(C(F)(F)F)c(N[C@H]4CC[C@@H](N)CC4)n3)ccc2C1 | 902 nM | 589 | 1.53 nM | – | – | – | 8.6 nM | 17.7% | 0.38 nM | – | – | – | – | – | – |
| CC(=O)N1CCc2cc(Nc3ncc(C(F)(F)F)c(N[C@H]4CC[C@@H](N)CC4)n3)ccc2C1 | 1080 nM | 1240 | 0.87 nM | Active | Active | Active | 7.6 nM | 33.2% | 0.07 nM | 1080 ng·h/mL | 2 h | 2.22 h | 555 ng/mL | 1100 ng·h/mL | 0.81 h |
| N[C@H]1CC[C@@H](Nc2nc(Nc3ccc4c(c3)CCN(C(=O)CO)C4)ncc2C(F)(F)F)CC1 | 2030 nM | 4420 | 0.46 nM | Active | Active | Active | 17.6 nM | 10.4% | 0.28 nM | 340 ng·h/mL | 1 h | 3.43 h | 162 ng/mL | 411 ng·h/mL | 2.3 h |
| N[C@H]1CC[C@@H](Nc2nc(Nc3ccc4c(c3)CN(C(=O)CO)C4)ncc2C(F)(F)F)CC1 | 1990 nM | 1870 | 1.06 nM | Active | Active | Active | 7.6 nM | – | 0.14 nM | – | – | – | – | – | – |
| C[C@H](O)C(=O)N1CCc2cc(Nc3ncc(C(F)(F)F)c(N[C@H]4CC[C@@H](N)CC4)n3)ccc2C1 | 704 nM | 766 | 0.92 nM | – | – | – | 5.1 nM | 13.6% | 0.28 nM | – | – | – | – | – | – |
| CC(C)(O)C(=O)N1Cc2ccc(Nc3ncc(C(F)(F)F)c(N[C@H]4CC[C@@H](N)CC4)n3)cc2C1 | 3090 nM | 2290 | 1.35 nM | Active | Active | Active | 13.5 nM | 17.5% | 0.5 nM | 577 ng·h/mL | 2 h | 1.92 h | 263 ng/mL | 604 ng·h/mL | 0.63 h |
| CC(=O)N1Cc2ccc(Nc3ncc(C(F)(F)F)c(N[C@H]4CC[C@@H](N)CC4)n3)cc2C1 | 2240 nM | 1370 | 1.63 nM | Active | Active | Active | 13.1 nM | 28.3% | 0.34 nM | 97.8 ng·h/mL | 2 h | 2.29 h | 32 ng/mL | 103 ng·h/mL | 1.21 h |
| CC(C)(O)C(=O)N1CCc2ccc(Nc3ncc(C(F)(F)F)c(N[C@H]4CC[C@@H](N)CC4)n3)cc2C1 | 8910 nM | 4030 | 2.21 nM | Active | Active | Active | 14 nM | 28.1% | 0.93 nM | 18.6 ng·h/mL | 0.25 h | 13.9 h | 4.06 ng/mL | 57.5 ng·h/mL | 9.08 h |
| CC(=O)N1CCc2ccc(Nc3ncc(C(F)(F)F)c(N[C@H]4CC[C@@H](N)CC4)n3)cc2C1 | 4620 nM | 3720 | 1.24 nM | Active | Active | Active | 7.61 nM | 43.4% | 0.35 nM | – | – | – | – | – | – |
| CN1CCc2cc(Nc3ncc(C(F)(F)F)c(N[C@H]4CC[C@@H](N)CC4)n3)ccc2C1=O | 4770 nM | 4150 | 1.15 nM | Active | Active | Active | 11.7 nM | 40.9% | 1.2 nM | – | – | – | – | – | – |
| CC(=O)N1CCc2cc(Nc3ncc(C(F)(F)F)c(N[C@H]4CC[C@@H](N)CC4)n3)ccc21 | 4780 nM | 4870 | 0.98 nM | Active | Active | Active | 10.7 nM | – | 2.07 nM | – | – | – | – | – | – |
| C[C@@H](O)C(=O)N1CCc2cc(Nc3ncc(C(F)(F)F)c(N[C@H]4CC[C@@H](N)CC4)n3)ccc2C1 | 1800 nM | 1440 | 1.25 nM | Active | Active | Active | 10.8 nM | 14.6% | 0.21 nM | 220 ng·h/mL | 2 h | 2.05 h | 80.1 ng/mL | 226 ng·h/mL | 0.96 h |
| CC(C)(O)CC(=O)N1CCc2cc(Nc3ncc(C(F)(F)F)c(NCCCN)n3)ccc2C1 | – | – | 3.79 nM | – | – | – | 34.5 nM | 11.2% | 2.38 nM | – | – | – | – | – | – |
| CC(C)(O)CC(=O)N1CCc2cc(Nc3ncc(C(F)(F)F)c(N[C@H]4CC[C@@H](N)CC4)n3)ccc21 | 5060 nM | 1760 | 2.88 nM | Active | Active | Active | 19 nM | – | 2.21 nM | – | – | – | – | – | – |
